The results in this text go back to US7084146B2 (dated 2006).

With `O=[N+]([O-])c1ccc(-c2c(Cl)nc3ncnn3c2NCC(F)(F)F)cc1`, the melting point (in general, the temperature of the solid-liquid transition) came to 237 °C.
